Data from article PMC5762338, “A novel orally available Syk/Src/Jak2 inhibitor, SKLB-850, showed potent anti-tumor activities in B cell lymphoma (BCL) models” (Oncotarget, 2017).

How the values were obtained:
Assay type in all cases: cell-based, Human
[1] = test system: HBL-1 cells; assay: Apoptosis assay, AnnexinV-FITC/propidium iodide FCM; details: HBL-1, treatment for 18 hours (legend: 24 hours)
Experimental: Figure 1 The chemical structure of SKLB-850 and its anti-tumor effects in vitro (A) The chemical structure of SKLB-850. (B and C) Apoptosis of Ramos cells induced by SKLB-850. Cells were treated by vehicle, R788 or indicated concentrations of compounds. […]
The ability of SKLB-850 to induce apoptosis of BCL cells was analyzed by FCM. […]
Flow cytometry (FCM) assays were performed to investigate the apoptosis of Ramos and HBL-1 cells induced by SKLB-850. […] Cell apoptosis was analyzed with a flow cytometer (BD FACSCalibur, BD, USA).

[2] = test system: HBL-1 cells; assay: Cell cycle analysis by FCM; details: HBL-1, compared with the control, 18 hours
Experimental: (§1) FCM was again used to examine the influence of SKLB-850 on the tumor cell cycle.
(§2) Figure 2 Cell cycle analysis of Ramos and HBL-1 cells induced by SKLB-850, R788 DMSO or control Tumor cells were treated by vehicle, R788 or indicated concentrations of compounds. After 18 hours, cell were harvested and stained with AnnexinV-FITC and propidium iodide, and then analyzed by FCM. […] (A and C) Cell cycle analysis of Ramos cells. (B and D) Cell cycle analysis of HBL-1 cells. […] Columns, mean; bars, SD.^##P < 0.01, 850 group versus DMSO or blank control group.
(§3) Ramos and HBL-1 cells cultured in 6-well plates were treated with DMSO, R788, SKLB-850 or medium. After 18 hours, cells were harvested and washed with PBS, fixed with 70% ethanol for 30 min, stained with 200 μL PI (50 μg/mL PI with 1 mg/mL RNase I, and 0.1% Triton X-100) for 30 min. Cell cycle was analyzed with a flow cytometer (BD FACSCalibur, BD, USA).

[3] = test system: Ramos cells; assay: Cell cycle analysis by FCM; details: 18 hours; for percentages of cells in the G2 phase (in words): compared with the control
Experimental: as §1, §2, §3

**Q.** `COc1cc(Nc2ncc(F)c(Nc3ccc4c(n3)N(COP(=O)(O)O)C(=O)C(C)(C)O4)n2)cc(OC)c1OC` [R788, reference compound] was tested. Which “percentages of apoptotic cells (in words)” value [1] did it give?
**A.** induced apoptosis but obviously much weaker

**Q.** What about the “percentages of cells in the G2 phase (in words)” value (“percentages of cells” below) [2] of the same compound?
**A.** very weak effect

**Q.** What about the “percentages of cells” value [3] of the same compound?
**A.** very weak effect

**Q.** Which “percentages of apoptotic cells (in words)” value [1] does the source give for `CN1CCN(c2ccc(Nc3ncc(F)c(Nc4ccc(Cl)cc4C(N)=O)n3)cc2)CC1` [SKLB-850, 5-chloro-2-((5-fluoro-2-((4-(4-methylpiperazin-1-yl)phenyl)amino)pyrimidin-4-yl)amino) benzamide] here?
**A.** dose-dependently increased

**Q.** What about the “percentages of cells” value [2] of the same compound?
**A.** significantly increased

**Q.** What about the “percentage of G2 phase cells” value ([3]; 0.01μg/mL, control 19.64 ± 0.61 %) of the same compound?
**A.** 53.90 ± 2.65%

**Q.** What about the “percentages of cells” value [3] of the same compound?
**A.** significantly increased
